Measured values taken from patent US8269000B2, “Substituted pyrimidine and triazine compounds” (Gruenenthal GmbH, priority 2008, dated 2012).

Biological target: T1, rat B1R (Rattus norvegicus, UniProt P97583)
T1 construct: expressed in transfected cells; host or cells: CHO K1 cells
T1 sequence (P97583 1-337): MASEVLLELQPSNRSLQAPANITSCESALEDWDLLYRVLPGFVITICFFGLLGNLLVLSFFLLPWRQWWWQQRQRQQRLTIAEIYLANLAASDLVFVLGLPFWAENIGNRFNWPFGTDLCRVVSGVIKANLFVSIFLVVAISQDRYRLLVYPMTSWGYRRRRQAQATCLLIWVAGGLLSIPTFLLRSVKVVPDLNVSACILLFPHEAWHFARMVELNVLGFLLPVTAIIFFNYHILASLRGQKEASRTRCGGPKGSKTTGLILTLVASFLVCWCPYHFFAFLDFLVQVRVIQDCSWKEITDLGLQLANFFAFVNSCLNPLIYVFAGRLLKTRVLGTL
Experiment: FLIPR Ca2+ functional study on bradykinin receptor 1 (rB1R CHO K1 cells)
Type: cell-based
Settings: % inhibition rat B1R at 10 μM
Procedure, shortened: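 Antagonism was calculated as % of maximal inhibition of the Ca2+ rise triggered by agonist at EC80 (Lys-Des-Arg9-bradykinin for hB1R, Des-Arg9-bradykinin for rB1R), added 10-20 min after test compound (10 μM or serial dilutions for IC50) to Fluo-4-loaded transfected CHO K1 cells on FLIPR. Duplicates or triplicates, ≥2 independent runs.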

Compound | % inh. (rat B1R) 10 μM [%]
COc1cc(C)c(S(=O)(=O)N2CCC[C@H]2COc2ccnc(N3CCC(c4nc(-c5ccncc5)no4)CC3)n2)c(C)c1 [H_CC-048] | 63
COc1cc(C)c(S(=O)(=O)N2CCC[C@@H]2COc2nccc(N3CCC(CNC(=O)c4ccncc4)(N4CCN(C)CC4)CC3)n2)c(C)c1 [G_CC-054, N-[[1-[2-[[(2R)-1-(4-methoxy-2,6-dimethylphenyl)sulfonyl-2-pyrrolidinyl)methoxy]-4-pyrimidinyl]-4-(4-methyl-1-piperazinyl)-4-pipendinyl]methyl]-4-pyridinecarboxamide] | 80
COc1cc(C)c(S(=O)(=O)N2c3ccccc3C[C@H]2COc2ccnc(N3CCN(CC4CCN(C)CC4)CC3)n2)c(C)c1 [H_CC-020, (2S)-1-(4-methoxy-2,6-dimethylphenyl)sulfonyl-2-[[2-[4-[(1-methyl-4-pipendinyl)methyl]-1-piperazinyl]-4-pyrimidinyl]oxymethyl]indoline] | 93
COc1cc(C)c(S(=O)(=O)N(C)C(COc2nccc(N3CCN(C4CCN(C)CC4)CC3)n2)c2ccccc2)c(C)c1 (stereo not shown) [G_CC-059, 4-methoxy-N,2,6-trimethyl-N-[2-[[4-[4-(1-methyl-4-pipendinyl)-1-piperazinyl]-2-pyrimidinyl]oxy]-1-phenylethyl]benzenesulfonamide] | 98

Same assay, conditions: CHO-K1, % inhibition rat B1R at 10 μM, read-out: % inh. (rat B1R) 10 μM

Compound | inhibition at 10 µM [%]
COc1cc(C)c(S(=O)(=O)N(C)C(COc2nccc(N3[C@@H]4CC[C@H]3CC(Oc3cccnc3)C4)n2)c2ccccc2)c(C)c1 (stereo partly drawn) [G_CC-107, 4-methoxy-N,2,6-trimethyl-N-[1-phenyl-2-[4-[(1S,5R)-3-pyridin-3-yloxy-8-azabicyclo[3.2.1]octan-8-yl]-pyrimidin-2-yl]oxy-ethyl]-benzenesulfonic acid amide] | 94
COc1cc(C)c(S(=O)(=O)N(C)CCOc2ccnc(N3CCCC3Cc3ccccn3)n2)c(C)c1 (stereo not shown) [H_CC-087, 4-methoxy-N,2,6-trimethyl-N-[2-[2-[2-(pyridin-2-yl-methyl)-pyrrolidin-1-yl]-pyrimidin-4-yl]oxy-ethyl]-benzenesulfonic acid amide] | 57
COc1cc(C)c(S(=O)(=O)N(C)CCOc2ccnc(N(C)CCN3CCC(Oc4ccncc4)CC3)n2)c(C)c1 [H_CC-089, 4-methoxy-N,2,6-trimethyl-N-[2-[2-[methyl-[2-(4-pyridin-4-yloxy-piperidin-1-yl)-ethyl]-amino]-pyrimidin-4-yl]oxy-ethyl]benzenesulfonic acid amide] | 58
COc1cc(C)c(S(=O)(=O)N2CC(Oc3ccnc(N4CCC(N5CCN(C)CC5)CC4)n3)C2)c(C)c1 [H_CC-015, 4-[[1-(4-methoxy-2,6-dimethylphenyl)sulfonyl-3-azetidinyl]oxy]-2-[4-(4-methyl-1-piperazinyl)-1-piperidinyl]pyrimidine] | 56
COc1cc(C)c(S(=O)(=O)N(C)C(COc2nccc(N3CCC4(CCN(Cc5ccccc5)C4=O)CC3)n2)c2ccccc2)c(C)c1 (stereo not shown) [G_CC-061, N-[2-[[4-(3-benzyl-4-oxo-3,8-diazaspiro[4.5]decan-8-yl)-2-pyrimidinyl]oxy]-1-phenylethyl]-4-methoxy-N,2,6-trimethylbenzenesulfonamide] | 81
COc1cc(C)c(S(=O)(=O)N2CCCCC2COc2ccnc(N3CCC(O)(c4ccccn4)CC3)n2)c(C)c1 (stereo not shown) [H_CC-083, 1-[4-[[1-[(4-methoxy-2,6-dimethyl-phenyl)sulfonyl]-piperidin-2-yl]-methoxy]-pyrimidin-2-yl]-4-pyridin-2-yl-piperidin-4-ol] | 59
COc1cc(C)c(S(=O)(=O)N2c3ccccc3C[C@H]2COc2nccc(N(C)CCN3CCC(c4ccccc4)(N4CCCC4)CC3)n2)c(C)c1 [G_CC-096, [2-[[(2S)-1-[(4-methoxy-2,6-dimethyl-phenyl)sulfonyl]-2,3-dihydro-1H-indol-2-yl]-methoxy]-pyrimidin-4-yl]-methyl-[2-(4-phenyl-4-pyrrolidin-1-yl-piperidin-1-yl)-ethyl]-amine] | 101
COc1cc(C)c(S(=O)(=O)N2CCC[C@H]2COc2nccc(N(C)CCCN3CCC(c4ccccc4)(N(C)C)CC3)n2)c(C)c1 [G_CC-075, 3-(4-dimethylamino-4-phenyl-piperidin-1-yl)-propyl-[2-[[(2S)-1-[(4-methoxy-2,6-dimethyl-phenyl)sulfonyl]-pyrrolidin-2-yl]-methoxy]-pyrimidin-4-yl]-methyl-amine] | 104
COc1cc(C)c(S(=O)(=O)N2CC(Oc3nccc(N4CCN(CC5CCN(C)CC5)CC4)n3)C2)c(C)c1 [G_CC-077, 2-[1-[(4-methoxy-2,6-dimethyl-phenyl)sulfonyl]-azetidin-3-yl]oxy-4-[4-[(1-methyl-piperidin-4-yl)methyl]-piperazin-1-yl]-pyrimidine] | 92
CCCCC1(N(C)C)CCN(CCN(C)c2nccc(OCCN(C)S(=O)(=O)c3c(C)cc(OC)cc3C)n2)CC1 [H_CC-060, N-[2-[2-[2-(4-butyl-4-dimethylamino-piperidin-1-yl)-ethyl-methyl-amino]pyrimidin-4-yl]oxy-ethyl]-4-methoxy-N,2,6-trimethyl-benzenesulfonic acid amide] | 102
COc1cc(C)c(S(=O)(=O)N2CCC[C@H]2COc2nccc(N3CCC4(CC3)OCc3ccccc34)n2)c(C)c1 [G_CC-033, 1′-[2-[[(2S)-1-(4-methoxy-2,6-dimethylphenyl)sulfonyl-2-pyrrolidinyl]methoxy]-4-pyrimidinyl]spiro[1H-isobenzofuran-3,4′-piperidine]] | 68
COc1cc(C)c(S(=O)(=O)N2CCC[C@H]2COc2ccnc(N3CCC(OCCN4CCCC4)(c4cccc(F)c4)CC3)n2)c(C)c1 [H_CC-092, 2-[4-(3-fluorophenyl)-4-(2-pyrrolidin-1-yl-ethoxy)-piperidin-1-yl]-4-[[(2S)-1-[(4-methoxy-2,6-dimethyl-phenyl)sulfonyl]-pyrrolidin-2-yl]-methoxy]-pyrimidine] | 50
COc1cc(C)c(S(=O)(=O)N2c3ccccc3C[C@H]2COc2ccnc(N3CCN(C4CCN(C)CC4)CC3)n2)c(C)c1 [H_CC-027, (2S)-1-(4-methoxy-2,6-dimethylphenyl)sulfonyl-2-[[2-[4-(1-methyl-4-piperidinyl)-1-piperazinyl]-4-pyrimidinyl]oxymethyl]indoline] | 91
COc1cc(C)c(S(=O)(=O)N2CCC[C@H]2COc2ccnc(N(C)CCN3CCC(Oc4ccncc4)CC3)n2)c(C)c1 [H_CC-051, [4-[[(2S)-1-[(4-methoxy-2,6-dimethyl-phenyl)sulfonyl]-pyrrolidin-2-yl]-methoxy]-pyrimidin-2-yl]-methyl-[2-(4-pyridin-4-yloxy-piperidin-1-yl)-ethyl]amine] | 99
COc1cc(C)c(S(=O)(=O)N(C)CCOc2nccc(N3CCC(N4CCN(C)CC4)CC3)n2)c(C)c1 [G_CC-006, 4-methoxy-N,2,6-trimethyl-N-[2-[[4-[4-(4-methyl-1-piperazinyl)-1-piperidinyl]-2-pyrimidinyl]oxy]ethyl]benzenesulfonamide] | 97
CCCCC1(N(C)C)CCN(CCN(C)c2ccnc(OC[C@@H]3Cc4ccccc4N3S(=O)(=O)c3c(C)cc(OC)cc3C)n2)CC1 [G_CC-097, 2-(4-butyl-4-dimethylamino-piperidin-1-yl)-ethyl-[2-[[(2S)-1-[(4-methoxy-2,6-dimethyl-phenyl)sulfonyl]-2,3-dihydro-1H-indol-2-yl]-methoxy]-pyrimidin-4-yl]-methyl-amine] | 101
COc1cc(C)c(S(=O)(=O)N2CC(Oc3nccc(N4CCC(c5ccccc5)(N5CCCC5)CC4)n3)C2)c(C)c1 [G_CC-122, 2-[1-[(4-methoxy-2,6-dimethyl-phenyl)sulfonyl]-azetidin-3-yl]oxy-4-(4-phenyl-4-pyrrolidin-1-yl-piperidin-1-yl)-pyrimidine] | 51
COc1cc(C)c(S(=O)(=O)N(C)CCOc2ccnc(N3CCC(OCCN4CCCC4)(c4cccc(F)c4)CC3)n2)c(C)c1 [H_CC-090, N-[2-[2-[4-(3-fluorophenyl)-4-(2-pyrrolidin-1-yl-ethoxy)-piperidin-1-yl]-pyrimidin-4-yl]oxy-ethyl]-4-methoxy-N,2,6-trimethyl-benzenesulfonic acid amide] | 83
COc1cc(C)c(S(=O)(=O)N2CCCCC2COc2ccnc(N(C)CCCN3CCC(c4ccccc4)(N(C)C)CC3)n2)c(C)c1 (stereo not shown) [H_CC-061, 3-(4-dimethylamino-4-phenyl-piperidin-1-yl)-propyl-[4-[[1-[(4-methoxy-2,6-dimethyl-phenyl)sulfonyl]-piperidin-2-yl]-methoxy]-pyrimidin-2-yl]-methyl-amine] | 105
COc1cc(C)c(S(=O)(=O)N2CCC[C@H]2COc2ccnc(N3CCN(C)CC3)n2)c(C)c1 [H_CC-008, 4-[[(2S)-1-(4-methoxy-2,6-dimethylphenyl)sulfonyl-2-pyrrolidinyl]methoxy]-2-(4-methyl-1-piperazinyl)pyrimidine] | 95
COc1cc(C)c(S(=O)(=O)N(C)C(COc2nccc(N3CCC(OCCN4CCCC4)(c4cccnc4)CC3)n2)c2ccccc2)c(C)c1 (stereo not shown) [G_CC-062, 4-methoxy-N,2,6-trimethyl-N-[1-phenyl-2-[[4-[4-(3-pyridyl)-4-(2-1-pyrrolidinylethoxy)-1-piperidinyl]-2-pyrimidinyl]oxy]ethyl]benzenesulfonamide] | 78
